Reference: US20230165867A1 (CHENGDU BAIYU PHARMACEUTICAL CO., LTD., priority 2020, published 2023)
Where two headings read alike, the source gives them in different places.

Columns and labels:
[1] = Metabolic stability in liver microsomes; type: in vitro ADME, human; conditions: human, human liver microsomes; 0.5 µM test substance, 0.5 mg/mL microsomes, NADPH and UDPGA, 37° C.; read-out: T½(min), stability in human liver microsomes
Experimental: Liver microsomes (purchased from Reed Liver Disease Research (Shanghai) Co., Ltd., product: human liver microsomes (NJT)); NADPH (purchased from Roche, Lot: 40939); UDPGA; the compounds of the present invention (test substances).
• (1) A mixed working solution of testosterone (0.5 µM) and 7-hydroxycoumarin (0.5 µM) was prepared. • (2) A mixed solution of NADPH (1 mM) and UDPGA (1 mM) was prepared, and prewarmed at 37° C. in a water bath shaker before use. • (3) Liver microsomes were thawed and diluted with a buffer. • (4) A preparation of a test substance (0.5 µM) and a solution of liver microsomes (0.5 mg/mL) were added to each well of an incubation plate. • (5) Three experimental groups were set and samples were added. Test group: the test substance was incubated with liver microsomes for 0 min, 30 min, 60 min, and 120 min in the presence of the coenzyme NADPH and UDPGA; Positive control group: testosterone (0.5 µM) and 7-hydroxycoumarin (0.5 µM) were incubated with microsomes for 0 min and 120 min in the presence of the coenzyme NADPH and UDPGA; Negative control group: the test substance was incubated with microsomes for 0 and 120 min without any coenzyme. • (6) All samples were incubated at 37° C., and pre-cooled methanol was added at each termination time (0, 15, 30, 45, 60 min, 120 min) to terminate the reaction, and the time was recorded. • (7) All samples were mixed well and centrifuged at 4000 rpm for 10 min. The supernatant was taken and measured by LC-MS/MS for the amount of the test substance remaining in the samples. Data analysis was carried out as follows: T½=0.693 /k, Clint = (0.693/T½) × (1 /(microsomal protein) × Scaling Factors), Note: k is the slope of the logarithm of the remaining amounts of compound versus time.

DNA-PK kinase = target: T1, DNA-PK kinase (Homo sapiens, UniProt P78527); test: Inhibition assay of DNA-PK kinase (Promega kit, ADP-Glo chemiluminescence); type: biochemical; conditions: 50 µM ATP, 37° C., 60 min; read-out: IC50 (nM), inhibitory activity on DNA-PK kinase
T1 construct: purchased Promega V4107
Method in brief: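 Compounds incubated with DNA-PK at 37° C for 60 min; reaction stopped with ADP-Glo reagent (40 min, RT), then kinase detection reagent (30 min, RT). ADP formed read by luminescence against an ADP standard curve.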

TTK kinase = target: T2, TTK kinase (Homo sapiens, UniProt P33981); test: TTK kinase activity assay (ADP-Glo); type: biochemical; conditions: initial concentration 1000 nM, 1:3, 10 dilutions; read-out: IC50 (nM), TTK kinase inhibiting activity
T2 construct: purchased Invitrogen PV3792
T2 sequence (P33981 1-857): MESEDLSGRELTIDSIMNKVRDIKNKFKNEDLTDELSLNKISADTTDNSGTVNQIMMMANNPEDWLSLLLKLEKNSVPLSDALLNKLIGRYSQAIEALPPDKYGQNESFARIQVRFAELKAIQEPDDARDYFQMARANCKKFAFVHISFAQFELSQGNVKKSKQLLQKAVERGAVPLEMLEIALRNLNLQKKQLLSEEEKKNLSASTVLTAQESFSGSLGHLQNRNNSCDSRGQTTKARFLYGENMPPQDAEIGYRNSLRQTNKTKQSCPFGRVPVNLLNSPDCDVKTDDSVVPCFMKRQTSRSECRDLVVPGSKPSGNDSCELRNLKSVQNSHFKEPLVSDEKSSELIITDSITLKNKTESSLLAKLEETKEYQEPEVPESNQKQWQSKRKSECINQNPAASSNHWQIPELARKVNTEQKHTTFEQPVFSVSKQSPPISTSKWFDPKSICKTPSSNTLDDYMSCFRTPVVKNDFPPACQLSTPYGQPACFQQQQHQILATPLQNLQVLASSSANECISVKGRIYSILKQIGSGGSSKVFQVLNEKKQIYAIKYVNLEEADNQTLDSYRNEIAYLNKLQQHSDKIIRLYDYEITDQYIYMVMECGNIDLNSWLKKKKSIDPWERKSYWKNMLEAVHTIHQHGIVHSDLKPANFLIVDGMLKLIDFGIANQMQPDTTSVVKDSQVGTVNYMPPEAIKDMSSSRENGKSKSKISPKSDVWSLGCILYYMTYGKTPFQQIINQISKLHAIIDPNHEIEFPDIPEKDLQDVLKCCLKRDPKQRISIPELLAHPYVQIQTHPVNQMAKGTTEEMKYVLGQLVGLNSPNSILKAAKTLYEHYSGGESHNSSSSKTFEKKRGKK
Experimental: TTK kinase was purchased from Invitrogen, Cat.#: PV3792.
• (1) 1×buffer was prepared by diluting 5×buffer into 1×buffer with ddH2O, and adding 0.05 mM DTT. • (2) The compounds of the present invention were prepared at an initial concentration of 1000 nM, and diluted by 1:3 to obtain 10 serial dilutions. • (3) The diluted compounds of the present invention were added to a 384-well plate (purchased from Greiner, product number 784075) by an Echo 550 pipetting workstation, and centrifuged at 1000 g for 1 min. • (3) A 2×TTK enzyme solution was prepared with the 1×buffer. Then, 2.5 µL of the 2× enzyme solution was added to each well, centrifuged at 1000 g for 30 s, and left at room temperature for 10 min. • (4) A 2×MBP substrate/ATP mixture was prepared with the 1×buffer.

[2] = Pharmacokinetic assay in ICR mice (i.v. and p.o.); type: in vivo; conditions: mouse, plasma, male ICR mice; for half-life: read-out: T½ (converted); for bioavailability: po 10 mg/kg vs iv 1 mg/kg
Method in brief: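 Fasted male ICR mice (18-22 g) dosed at 1 mg/kg i.v. or 10 mg/kg p.o. in 5% DMSO/95% 30% HP-β-CD, three mice per time point. Submandibular plasma sampled up to 24 h, assayed by LC/MS/MS.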

SMILES	half-life at 0.5 µM [1] [min]	IC50 (DNA-PK kinase) [nM]	IC50 (TTK kinase) [nM]	AUC ([2]; iv, 1 mg/kg) [ng·h/mL]	half-life ([2]; iv, 1 mg/kg) [h]	bioavailability [2] [%]	AUC ([2]; po, 10 mg/kg) [ng·h/mL]	Cmax ([2]; po, 10 mg/kg) [ng/mL]	half-life ([2]; po, 10 mg/kg) [h]
Cc1cc(C(N)=O)ncc1Nc1ncc2c(n1)n(C1CCOCC1)c(=O)n2C [Compound 18, 4-Methyl-5-((7-methyl-8-oxo-9-(tetrahydro-2H-pyran-4-yl)-8,9-dihydro-7H-purin-2-yl)amino)picolinamide]	> 120	2.1	387	171	0.771	78.4	1360	312	3.06
Cc1cc(C(N)=O)c(F)cc1Nc1ncc2c(n1)n(C1CCOCC1)c(=O)n2C [Compound 24, 2-Fluoro-5-methyl-4-((7-methyl-8-oxo-9-(tetrahydro-2H-pyran-4-yl)-8,9-dihydro-7H-purin-2-yl)amino)benzamide]	> 120	0.56	4220	466	0.95	135	6280	2500	3.73
CNC(=O)c1ccc(Nc2ncc3c(n2)n(C2CCOCC2)c(=O)n3C)c(C)c1 [Compound 27, N,3-Dimethyl-4-((7-methyl-8-oxo-9-(tetrahydro-2H-pyran-4-yl)-8,9-dihydro-7H-purin-2-yl)amino)benzamide]	> 120	4.36	428	679	1.48	213	14600	5450	2.17
